Test results: the NIST ThermoML archive (doi:10.1016/j.tca.2017.08.004)

Tests used:
[1] = Crystal; for vapor or sublimation pressure: Transpiration method
[2] = Molar enthalpy of transition or fusion; details: Crystal; DSC

CC(C)c1ccc(N=C2SCC3CCCN2C3)cc1 (stereo unspecified)
[1]
Details | vapor or sublimation pressure [kPa]
308.15 K | 7.9e-06
310.15 K | 1.01e-05
311.15 K | 1.19e-05
313.15 K | 1.61e-05
314.15 K | 1.86e-05
315.15 K | 2.13e-05
316.15 K | 2.3e-05
317.15 K | 2.74e-05
318.15 K | 3.07e-05
319.15 K | 3.29e-05
320.15 K | 3.89e-05
322.15 K | 4.8e-05
323.15 K | 5.57e-05

Fc1ccc(N=C2[Se]CC3CCCN2C3)cc1 (stereo unspecified) [N-(4-fluorophenyl)-3-selena-1-azabicyclo[3.3.1]nonan-2-imine]
[1]
Details | Normal melting temperature [°C] | vapor or sublimation pressure [kPa]
344.15 K | – | 6.71e-05
346.15 K | – | 8.23e-05
348.15 K | – | 0.0001009
350.15 K | – | 0.0001254
352.15 K | – | 0.0001539
354.15 K | – | 0.0001821
357.15 K | – | 0.0002441
359.15 K | – | 0.0002956
360.15 K | – | 0.0003273
361.15 K | – | 0.00036
362.15 K | – | 0.0003964
363.15 K | – | 0.0004316
364.15 K | – | 0.0004719
365.15 K | – | 0.0005306
DTA | 103.1 | –

Details | Molar enthalpy of transition or fusion [kJ/mol]
[2] | 21.9

CC(=O)c1ccc(N=C2SCC3CCCN2C3)cc1 (stereo unspecified)
[1]
Details | vapor or sublimation pressure [kPa]
370.15 K | 1.72e-05
372.15 K | 2.17e-05
373.15 K | 2.52e-05
374.15 K | 2.65e-05
375.15 K | 3.08e-05
377.15 K | 3.73e-05
379.15 K | 4.55e-05
381.15 K | 5.67e-05
383.15 K | 6.72e-05
385.15 K | 8.05e-05
387.15 K | 9.63e-05
389.15 K | 0.0001225
390.15 K | 0.0001287
391.15 K | 0.0001437
392.15 K | 0.0001637

N#Cc1ccc(N=C2SCC3CCCN2C3)cc1 (stereo unspecified)
[1]
Details | vapor or sublimation pressure [kPa]
341.15 K | 4.41e-05
343.15 K | 6.35e-05
345.15 K | 8.28e-05
347.15 K | 0.0001196
349.15 K | 0.0001553
351.15 K | 0.0002074
353.15 K | 0.0002772
354.15 K | 0.0002989
356.15 K | 0.0004234
358.15 K | 0.000541
360.15 K | 0.0007001
361.15 K | 0.0008286
